Article PMC12406192, “Sustainable Joullié–Ugi and Continuous Flow Implementation Led to Novel Captopril-Inspired Broad-Spectrum Metallo-β-Lactamase Inhibitors” (Journal of Medicinal Chemistry, 2025)

Key:
[1] = system: E. coli SI-M001 (bla NDM‑1 +); assay: Imipenem MIC, broth microdilution, with fixed concentration of compound; assay type: cell-based; conditions: compound at 32 μg/mL; median of three experiments
Protocol: In vitro antimicrobial susceptibility testing was performed according to established standards. […]. The strains used in the study were described elsewhere.

[2] = target: T1, IMP-1 (Serratia marcescens, UniProt P52699); assay: biochemical; conditions: for inhibition at 50 µM: read-out: percentage of inhibition IMP-1
T1 construct: made in house; host or cells: E. coli
T1 sequence (P52699 19-246, looked up, species assumed): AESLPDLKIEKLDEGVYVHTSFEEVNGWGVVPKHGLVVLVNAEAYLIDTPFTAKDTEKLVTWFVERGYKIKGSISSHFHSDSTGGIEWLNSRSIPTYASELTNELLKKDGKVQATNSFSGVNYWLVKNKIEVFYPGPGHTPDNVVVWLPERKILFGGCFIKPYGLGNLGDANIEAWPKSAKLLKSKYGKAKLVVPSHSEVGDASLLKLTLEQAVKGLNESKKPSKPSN
Protocol: (§1) IC50 values were determined in a kinetic fluorescence-based in vitro assay as described previously. All compounds were preincubated with the recombinant protein for 30 min before addition of the fluorogenic substrate fluorocillin. , The inhibitory activity was also determined (expressed as the percentage of inhibition in the presence of 50 μM compound) using a spectrophotometric assay in which the hydrolysis of imipenem (the reporter substrate) was monitored (see Section for details).
(§2) The inhibitory activity of the compounds was determined using enzyme assays with recombinant NDM-1, VIM-1, VIM-2, IMP-1, and IMP-7. These enzymes were produced in E. coli and purified as previously described. , The fluorogenic substrate fluorocillin was synthesized according to the procedure described by Rukavishnikov et al. The assays were performed in 96-well format using black polystyrene plates (Corning, Corning, NY) at room temperature, and the measurements were carried out on the Tecan spectrophotometer Infinite F200 PRO (Tecan, Männedorf, Switzerland). The protein stock solutions were diluted in assay buffer (HEPES 50 mM, pH 7.5 containing 0.01%Triton X-100, buffer HX) to reach final concentrations of VIM-1–4 nM, IMP-7–0.1 nM; NDM-1–3 nM. Subsequently, 89 μL of the protein solution was mixed with 1 μL of the inhibitor diluted in DMSO (final DMSO concentration 1% at final assay volume of 100 μL) and incubated for 30 min. […] Negative controls were measured in the absence of enzyme (89 μL of assay buffer), whereas the positive controls were measured in the presence of enzyme and in the absence of inhibitors (1 μL of DMSO). Each measurement was performed in triplicate in three independent experiments. IC50 values were calculated using data obtained from measurements with at least eight different inhibitor concentrations, applying a sigmoidal dose–response (variable slope with four parameters) equation using GraphPad Prism 5 (GraphPad Software, La Jolla, CA) software. […] All assays were performed in at least in triplicate.

[3] = target: T2, VIM-2 (Escherichia coli, UniProt Q5U7L7); assay: biochemical; conditions: read-out: percentage of inhibition VIM-2
T2 construct: made in house; host or cells: E. coli
Protocol: as §1, §2

[4] = system: E. coli SI-G001 (bla NDM‑4 +); assay type: cell-based; conditions: compound at 32 μg/mL; median of three experiments
Protocol: (§3) In vitro antimicrobial susceptibility testing was performed according to established standards. […] The strains used in the study were described elsewhere.

[5] = system: E. coli SI–N003 (bla NDM‑7 +); assay type: cell-based; conditions: compound at 32 μg/mL; median of three experiments
Protocol: as §3

[6] = system: S. marcescens SI-1591 (bla VIM‑2 +); assay: microbe, parasite or virus in culture; assay type: cell-based; conditions: compound at 32 μg/mL; median of three experiments
Protocol: as §3

[7] = target: T3, NDM-1 (Klebsiella pneumoniae, UniProt C7C422); assay: Spectrophotometric direct competition assay, imipenem hydrolysis (reporter substrate); assay type: biochemical; conditions: for inhibition at 50 µM: read-out: percentage of inhibition NDM-1
T3 construct: made in house; host or cells: E. coli
T3 sequence (C7C422 29-270 limits assumed): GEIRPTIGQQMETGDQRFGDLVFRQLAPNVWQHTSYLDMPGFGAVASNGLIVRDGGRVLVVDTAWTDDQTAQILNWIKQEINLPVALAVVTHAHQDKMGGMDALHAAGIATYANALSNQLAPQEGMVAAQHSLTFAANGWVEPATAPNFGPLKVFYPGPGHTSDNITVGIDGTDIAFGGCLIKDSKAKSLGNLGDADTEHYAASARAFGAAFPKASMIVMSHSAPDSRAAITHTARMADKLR
Protocol: as §1, §2

[8] = system: K. pneumoniae 7023 (bla VIM‑1 +); assay: Imipenem MIC, broth microdilution, with fixed concentration of compound; assay type: cell-based; conditions: compound at 32 μg/mL; median of three experiments
Protocol: as §3

[9] = system: K. pneumoniae VA-416/02 (bla VIM‑4 +); assay: as above; assay type: cell-based; conditions: compound at 32 μg/mL; median of three experiments
Protocol: as §3

[10] = system: A. baumannii AC-54/97 (bla IMP‑2 +); assay: as above; assay type: cell-based; conditions: compound at 32 μg/mL; median of three experiments
Protocol: as §3

[11] = target: T3, NDM-1; assay: Kinetic fluorescence-based in vitro assay with fluorocillin substrate (IC50); assay type: biochemical; conditions: 30 min preincubation
Protocol: as §1, §2

[12] = target: T2, VIM-2; assay: biochemical; conditions: competitive model, imipenem reporter substrate; read-out: K i VIM-2
[13] = target: T4, human angiotensin-converting enzyme 1 (ACE-1) (Homo sapiens, UniProt P12821); assay: ACE Activity Assay Kit, fluorogenic substrate; assay type: biochemical; conditions: 50 μM inhibitor
T4 construct: purchased Sigma-Aldrich CS0002
T4 sequence (P12821 30-1306): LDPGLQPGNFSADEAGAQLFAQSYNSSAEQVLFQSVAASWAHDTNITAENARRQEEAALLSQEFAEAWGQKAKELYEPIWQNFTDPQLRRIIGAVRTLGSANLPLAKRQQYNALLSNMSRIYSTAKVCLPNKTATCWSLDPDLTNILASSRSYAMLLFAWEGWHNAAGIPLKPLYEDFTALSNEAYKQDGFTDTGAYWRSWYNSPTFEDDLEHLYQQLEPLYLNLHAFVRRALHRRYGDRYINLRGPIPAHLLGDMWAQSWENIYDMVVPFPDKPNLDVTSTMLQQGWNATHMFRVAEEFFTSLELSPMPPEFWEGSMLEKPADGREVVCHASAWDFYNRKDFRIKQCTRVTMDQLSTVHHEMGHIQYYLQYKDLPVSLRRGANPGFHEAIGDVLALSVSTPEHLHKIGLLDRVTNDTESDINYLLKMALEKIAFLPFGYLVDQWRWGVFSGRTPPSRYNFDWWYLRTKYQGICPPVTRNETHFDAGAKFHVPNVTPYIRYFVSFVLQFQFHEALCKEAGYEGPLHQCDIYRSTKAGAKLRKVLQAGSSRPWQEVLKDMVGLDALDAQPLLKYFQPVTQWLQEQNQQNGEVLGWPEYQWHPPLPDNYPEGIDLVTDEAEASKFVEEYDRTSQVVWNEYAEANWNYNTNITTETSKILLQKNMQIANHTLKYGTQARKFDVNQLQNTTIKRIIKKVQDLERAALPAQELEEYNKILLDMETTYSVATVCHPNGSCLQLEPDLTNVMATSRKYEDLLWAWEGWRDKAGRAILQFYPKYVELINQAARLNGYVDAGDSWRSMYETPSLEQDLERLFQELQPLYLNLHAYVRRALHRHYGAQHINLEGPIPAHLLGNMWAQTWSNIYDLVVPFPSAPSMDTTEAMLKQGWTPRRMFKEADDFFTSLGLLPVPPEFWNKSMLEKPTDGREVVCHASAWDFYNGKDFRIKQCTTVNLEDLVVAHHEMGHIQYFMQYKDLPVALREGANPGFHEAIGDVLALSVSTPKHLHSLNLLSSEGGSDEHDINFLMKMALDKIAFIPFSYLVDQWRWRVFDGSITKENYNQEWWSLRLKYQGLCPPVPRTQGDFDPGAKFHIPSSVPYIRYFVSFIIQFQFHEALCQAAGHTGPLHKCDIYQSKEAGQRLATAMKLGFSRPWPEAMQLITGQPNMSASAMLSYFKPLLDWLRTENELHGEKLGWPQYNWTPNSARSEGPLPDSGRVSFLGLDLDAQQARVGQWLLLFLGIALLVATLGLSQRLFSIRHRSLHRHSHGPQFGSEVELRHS
Protocol: To assess the selectivity of the compounds, their inhibitory activity on human angiotensin-converting enzyme 1 (ACE-1) was performed using the ACE Activity Assay Kit (Sigma-Aldrich cat. No. CS0002). […] Captopril (racemic mixture, D- and L-stereoisomers) was used as control in these experiments.

| SMILES | imipenem MIC, E. coli SI-M001 (bla NDM‑1 +) [1] [µg/mL] | inhibition at 50 µM [2] [%] | inhibition at 50 µM [3] [%] | imipenem MIC, E. coli SI-G001 (bla NDM‑4 +) [4] [µg/mL] | imipenem MIC, E. coli SI–N003 (bla NDM‑7 +) [5] [µg/mL] | imipenem MIC, S. marcescens SI-1591 (bla VIM‑2 +) [6] [µg/mL] | inhibition at 50 µM [7] [%] | imipenem MIC, K. pneumoniae 7023 (bla VIM‑1 +) [8] [µg/mL] | imipenem MIC, K. pneumoniae VA-416/02 (bla VIM‑4 +) [9] [µg/mL] | imipenem MIC, A. baumannii AC-54/97 (bla IMP‑2 +) [10] [µg/mL] | IC50 [11] [µM] | Ki ([2]; competitive model, imipenem reporter substrate, read-out: K i IMP-1) [µM] | Ki ([7]; competitive model, imipenem reporter substrate, read-out: K i NDM-1) [µM] | Ki [12] [µM] | inhibition at 50 µM [13] [%] |
| --- | --- | --- | --- | --- | --- | --- | --- | --- | --- | --- | --- | --- | --- | --- | --- |
| C[C@H](CS)C(=O)N1c2ccccc2C(C)(C)[C@H]1C(=O)NCC(=O)O [7a, ((S)-1-((S)-3-Mercapto-2-methylpropanoyl)-3,3-dimethylindoline-2-carbonyl)glycine] | 64 | ≤ 10 | 38 | 64 | 64 | 8 | 28 | 128 | 128 | 128 | 40 |  |  |  |  |
| CCC1(CC)c2ccccc2N(C(=O)[C@H](C)CS)[C@@H]1C(=O)NCC(=O)O [7c, ((S)-3,3-Diethyl-1-((S)-3-mercapto-2-methylpropanoyl)indoline-2-carbonyl)glycine] | 64 | 27 | 55 | 64 | 64 | 16 | 43 | 128 | 128 | 128 | 41 |  |  |  |  |
| CCC1(CC)c2ccccc2N(C(=O)[C@H](C)CS)[C@@H]1C(N)=O [6c, (S)-3,3-Diethyl-1-((S)-3-mercapto-2-methylpropanoyl)indoline-2-carboxamide] | 64 | 66 | 96 | 64 | 64 | 8 | 81 | 128 | 128 | 128 | 8.4 | 4.9 ± 0.3 | 4.5 ± 0.7 | 0.16 ± 0.01 | < 5 |
| CCC1(CC)c2ccccc2N(C(=O)[C@H](C)CS)[C@H]1C(=O)NCC(=O)O [7d, ((R)-3,3-Diethyl-1-((S)-3-mercapto-2-methylpropanoyl)indoline-2-carbonyl)glycine] | 64 | 17 | 69 | 64 | 64 | 16 | 67 | 128 | 128 | 128 | 10 |  |  |  |  |
| CC(=O)SC[C@@H](C)C(=O)N1c2ccccc2C2(CCCCC2)[C@H]1C(N)=O [(S,S′)-14c, ((S)-3-((S)-2′-Carbamoylspiro[cyclohexane-1,3′-indolin]-1′-yl)-2-methyl-3-oxopropyl)ethanethioate] | 16 | ≤ 10 | 17 | 32 | 32 | 8 | ≤ 10 | 64 | 128 | 128 |  |  |  |  |  |
| CCC1(CC)c2ccccc2N(C(=O)[C@H](C)CSC(C)=O)[C@H]1C(N)=O [(S,R′)-14b, ((S)-3-((R)-2-Carbamoyl-3,3-diethylindolin-1-yl)-2-methyl-3-oxopropyl)ethanethioate] | 32 | ≤ 10 | 15 | 64 | 64 | 8 | ≤ 10 | 64 | 128 | 128 |  |  |  |  |  |
